Legend:
human GPR52 = target: T1, human GPR52 (Homo sapiens, UniProt Q9Y2T5); test: GPR52 Agonist Functional cAMP Assay; assay type: cell-based; conditions: for Emax: normalised to DMSO (0%) and maximal compound 7m (J. Med. Chem., 2014, 57, 5226) response (100%); for EC50: HEKf cells infected with human GPR52 BacMam, HTRF cAMP, 30 min at 37° C., read-out: pEC50 average (converted)
T1 construct: expressed in transfected cells; host or cells: HEKf suspension cells infected with BacMam virus
Method: HEKf suspension cells were infected for 24 h with 0.1% v/v human GPR52 expressing BacMam virus, a modified baculovirus designed for mammalian gene expression. Following BacMam infection, cells were pelleted by centrifugation (335 g, 5 min), resuspended in cell freezing medium (Sigma) and frozen at −150° C. until required. On experiment day, 25 nL GPR52 compound dilutions, prepared in DMSO, were stamped onto proxiplates (PerkinElmer) by a LabCyte ECHO acoustic dispenser. Frozen cells were thawed and resuspended in assay stimulation buffer (Cisbio) containing 0.5 mM 3-iso-butyl-1-methylxanthine (IBMX, Sigma) to achieve a density of 2000 cells per well. 10 μl cells were added to assay plates using a Multidrop Combi Reagent Dispenser (ThermoFisher) before centrifugation (335 g, 1 min). Cells were incubated with compounds at 37° C. for 30 min prior to addition of cAMP detection reagents (HiRange cAMP kit, Cisbio) which were prepared according to the manufacturer's instructions. Plates were shaken for 1 h at room temperature before reading on a PHERAstar FS plate reader (BMG Labtech) using standard HTRF settings. HTRF ratios were obtained by dividing the acceptor emissions (665 nm) by the donor emissions (620 nm) and multiplying by 10,000.

[1] = Pharmacokinetic profiling in male Sprague-Dawley rats (IV and PO); assay type: in vivo; conditions: plasma, Rat PO, 3 mg/kg, n = 3, mean ± standard deviation
Method: The pharmacokinetic profiles of Example 39 were assessed in male Sprague-Dawley rats via intravenous (IV) and oral (per os, PO) routes of delivery. Pharmacokinetic data (mean values ±standard deviation) for Example 39 of the invention are detailed in Table 5.
Methods: For pharmacokinetic analysis, groups of three male Sprague-Dawley rats, ranging in weight between 200 and 230 g, were administered a single dose of Example 39 via IV or PO route, using the doses, dose volumes and vehicles specified in Table 5. Following dosing, blood samples were taken at several time points (pre-dose, 2 min, 5 min, 15 min, 30 min, 1 h, 3 h, 6 h, 12 h and 24 h for IV administration and pre-dose, 5 min, 15 min, 30 min, 1 hr, 2 h, 4 h, 8 h, 12 h and 24 h for PO administration) via serial tail vein bleeds, and centrifuged to separate plasma for analysis by LC-MS/MS. WinNonlin v8.2 statistics software (Pharsight Corporation, California, USA) was used to generate pharmacokinetic parameters using non-compartmental analysis.

[2] = tested on: caffeine-induced hyperlocomotor activity; test: Caffeine-induced locomotor activity in rat; assay type: in vivo, male Sprague-Dawley rats; conditions: 0.1, 0.3, 1 and 3 mg/kg PO, 60 min before caffeine 15 mg/kg s.c.; statistical significance at 1 and 3 mg/kg
Source text: Caffeine, a non-selective adenosine receptor antagonist, is a psychostimulant which increases rodent locomotor activity principally via blockade of A2A receptors (Br. J. Pharmacol., 2000, 129, 1465). These receptors are densely expressed on the terminals of GABAergic striatopallidal neurons in the indirect pathway of the basal ganglia, in which dopamine D2 receptors are co-expressed (J. Comp. Neurol., 1998, 401, 163; J. Comp. Neurol., 2001, 431, 331). Tonic activation of A2A receptors decreases the affinity of D2 receptors to dopamine and antagonism of A2A receptors facilitates dopaminergic signalling (Curr. Pharm. Des., 2008, 14, 1468). […] Male Sprague-Dawley rats (200-250 g) were housed in groups with a 12 h light/dark cycle (lights on at 07.00), at an ambient temperature of 21±2° C. and with standard pelleted diet and water adlibitum. Testing was carried out in the light phase. On the day of the experiment, animals were habituated to the locomotor cages for a 60-minute period. Subsequently, they were dosed with vehicle or Example 39 (0.1, 0.3, 1 and 3 mg/kg) by the oral route and returned to the appropriate locomotor cage. Example 39 was formulated in a vehicle of 10% DMAC, 10% solutol (Kolliphor HS15) and 80% water (v/v/v). […] Locomotor activity was assessed for a 2 h period after caffeine treatment. […] SEMs were calculated from the residuals of the statistical model. […]

T1 sequence (Q9Y2T5 whole entry): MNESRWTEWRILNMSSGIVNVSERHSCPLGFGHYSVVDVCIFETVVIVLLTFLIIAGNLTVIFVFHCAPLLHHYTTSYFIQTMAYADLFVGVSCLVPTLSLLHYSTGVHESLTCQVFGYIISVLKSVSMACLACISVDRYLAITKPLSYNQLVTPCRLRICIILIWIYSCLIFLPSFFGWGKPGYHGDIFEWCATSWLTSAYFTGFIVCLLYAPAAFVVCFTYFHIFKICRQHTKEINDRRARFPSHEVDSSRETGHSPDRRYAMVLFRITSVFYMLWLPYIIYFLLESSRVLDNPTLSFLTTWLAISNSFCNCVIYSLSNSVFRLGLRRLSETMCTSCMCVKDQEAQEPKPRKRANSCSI

Row | Emax (human GPR52) | bioavailability [1] | EC50 (human GPR52) | Structure (SMILES) | effect on caffeine-induced hyperlocomotor response [2]
1 | 101% | 77.4 ± 14.9% |  | Cc1nn(-c2cc(Cc3cc(F)cc(C(F)(F)F)c3)ccn2)c(CO)c1C(N)=O [Example 39, 1-(4-(3-fluoro-5-(trifluoromethyl)benzyl)pyridin-2-yl)-5-(hydroxymethyl)-3-methyl-1H-pyrazole-4-carboxamide] | dose-dependent reduction
2 | 93% |  | 0.158 µM | Cc1cc(C(N)=O)nn1-c1cc(Cc2cc(F)cc(C(F)(F)F)c2)ccn1 [Example 30, 1-(4-(3-fluoro-5-(trifluoromethyl)benzyl)pyridin-2-yl)-5-methyl-1H-pyrazole-3-carboxamide] | 
3 | 97% |  | 0.0251 µM | NC(=O)c1cn(-c2ccnc(Cc3cc(F)cc(C(F)(F)F)c3)c2)nc1C1CC1 [Example 27, 3-cyclopropyl-1-(2-(3-fluoro-5-(trifluoromethyl)benzyl)pyridin-4-yl)-1H-pyrazole-4-carboxamide] | 
